Measurements published in patent US20230077362A1 (CORTEVA AGRISCIENCE LLC, priority 2019, published 2023).

Tests used:
Format in all cases: in vivo
[1] = tested on: Cabbage Looper (Trichoplusia ni) ("CL"), second instar larvae; assay: Bioassay on cabbage looper (CL), 128-well diet tray assay; conditions: Trichoplusia ni, read-out: CL (Biological Results, rating)
Procedure, shortened: (§1)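 Sealed trays, 25° C., 14:10 light:dark, 5–7 d. Per-well % mortality recorded, mean of eight wells reported.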

[2] = tested on: Green Peach Aphid ("GPA") (Myzus persicae), wingless adult and nymph stages; assay: Bioassay on green peach aphid (GPA), foliar spray on infested cabbage seedlings; conditions: for pest or weed control at 200 µg/mL: Myzus persicae, foliar, 72 h, read-out: GPA (Biological Results, rating)
Experimental: Certain molecules disclosed in this document were tested against GPA using procedures described in the following example. In the reporting of the results, the “GPA Rating Table” was used (See Table Section).
Cabbage seedlings grown in 3-inch pots, with 2-3 small (3-5 cm) true leaves, were used as test substrate. The seedlings were infested with 20-50 GPA (wingless adult and nymph stages) one day prior to chemical application. Four pots with individual seedlings were used for each treatment. Test compounds (2 mg) were dissolved in 2 mL of acetone/methanol (1:1) solvent, forming stock solutions of 1000 ppm test compound. […] A hand-held aspirator-type sprayer was used for spraying a solution to both sides of […] leaves until runoff. Reference plants (solvent check) were sprayed with the diluent only containing 20% by volume of acetone/methanol (1:1) solvent. Treated plants were held in a holding room for three days at approximately 25° C. and ambient relative humidity (RH) prior to grading. Evaluation was conducted by counting the number of live aphids per plant under a microscope.
Corrected % Control=100*(X−Y)/X • where • X=No. of live aphids on solvent check plants and • Y=No. of live aphids on treated plants
The results are indicated in the table entitled “Table ABC: Biological Results” (See Table Section).

[3] = tested on: Beet Armyworm (Spodoptera exigua) ("BAW"), second instar larvae; assay: Bioassay on beet armyworm (BAW), 128-well diet tray assay; conditions: Spodoptera exigua, read-out: BAW (Biological Results, rating)
Procedure, shortened: as §1

`Cc1ccc(C(F)(F)F)c(N2C(=O)C(Cl)S/C2=N\C(=O)NCC(F)c2ccc(-c3ncn(-c4ccc(OC(F)(F)F)cc4)n3)cc2)c1` (stereo not drawn) [Compound H7] was tested. Which pest or weed control at 50 µg/cm2 [1] did it give?
The pest or weed control at 50 µg/cm2 was 50 to 100%.

And the pest or weed control at 200 µg/mL [2]?
The pest or weed control at 200 µg/mL was 0 to 80%.

And the pest or weed control at 50 µg/cm2 [3]?
Its pest or weed control at 50 µg/cm2 is 50 to 100%.

Which pest or weed control at 50 µg/cm2 [1] does the source give for `COc1ccc(CC(F)(F)F)c(N2C(=O)CS/C2=N\C(=O)NCC(F)c2ccc(-c3ncn(-c4ccc(OC(F)(F)F)cc4)n3)cc2)c1` (stereo not drawn) [Compound H14] here?
The pest or weed control at 50 µg/cm2 was 50 to 100%.

And the pest or weed control at 200 µg/mL [2]?
Its pest or weed control at 200 µg/mL is 0 to 80%.

What about the pest or weed control at 50 µg/cm2 [3] of the same compound?
The pest or weed control at 50 µg/cm2 was 50 to 100%.

With `Cc1ccc(C(C)C)c(N2C(=O)CS/C2=N\C(=O)Nc2ccc(-c3ncn(-c4ccc(OC(F)(F)F)cc4)n3)cc2C)c1` [Compound J1, (Z)-1-(3-(2-isopropyl-5-methylphenyl)-4-oxothiazolidin-2-ylidene)-3-(2-methyl-4-(1-(4-(trifluoromethoxy)phenyl)-1H-1,2,4-triazol-3-yl)phenyl)urea] as the compound, how does the pest or weed control at 50 µg/cm2 [1] read?
Its pest or weed control at 50 µg/cm2 is 50 to 100%.

What about the pest or weed control at 200 µg/mL [2] of the same compound?
Its pest or weed control at 200 µg/mL is 0 to 80%.

And the pest or weed control at 50 µg/cm2 [3]?
Its pest or weed control at 50 µg/cm2 is 50 to 100%.

`Cc1ccc(C(C)C)c(N2C(=O)CS/C2=N\C(=O)Nc2ccc(-c3ncn(-c4ccc(OC(F)(F)F)cc4)n3)cc2F)c1` [Compound J19, (Z)-1-(2-Fluoro-4-(1-(4-(trifluoromethoxy)phenyl)-1H-1,2,4-triazol-3-yl)phenyl)-3-(3-(2-isopropyl-5-methylphenyl)-4-oxothiazolidin-2-ylidene)urea] was tested. Which pest or weed control at 50 µg/cm2 [1] did it give?
The pest or weed control at 50 µg/cm2 was 50 to 100%.

And the pest or weed control at 200 µg/mL [2]?
Its pest or weed control at 200 µg/mL is 0 to 80%.

What about the pest or weed control at 50 µg/cm2 [3] of the same compound?
Its pest or weed control at 50 µg/cm2 is 50 to 100%.

What does the source list for `Cc1ccc(C(C)C)c(N2C(=O)C(Cl)S/C2=N\C(=O)Nc2ccc(-c3ncn(-c4ccc(OC(F)(F)F)cc4)n3)cc2F)c1` (stereo not drawn) [Compound J32, (Z)-1-(5-chloro-3-(2-isopropyl-5-methylphenyl)-4-oxothiazolidin-2-ylidene)-3-(2-fluoro-4-(1-(4-(trifluoromethoxy)phenyl)-1H-1,2,4-triazol-3-yl)phenyl)urea]?
pest or weed control at 50 µg/cm2 [1]: 50 to 100%; pest or weed control at 200 µg/mL [2]: 0 to 80%; pest or weed control at 50 µg/cm2 [3]: 50 to 100%

For `Cc1ccc(OCCC(F)(F)F)c(N2C(=O)CS/C2=N\C(=O)Nc2ccc(-c3ncn(-c4ccc(OC(F)(F)F)cc4)n3)cc2F)c1` [Compound J35, (Z)-1-(2-Fluoro-4-(1-(4-(trifluoromethoxy)phenyl)-1H-1,2,4-triazol-3-yl)phenyl)-3-(3-(5-methyl-2-(3,3,3-trifluoropropoxy)phenyl)-4-oxothiazolidin-2-ylidene)urea], which pest or weed control at 50 µg/cm2 [1] is on record?
Its pest or weed control at 50 µg/cm2 is 50 to 100%.

What about the pest or weed control at 200 µg/mL [2] of the same compound?
The pest or weed control at 200 µg/mL was 0 to 80%.

And the pest or weed control at 50 µg/cm2 [3]?
The pest or weed control at 50 µg/cm2 was 50 to 100%.

For `COCc1ccc(C)cc1N1C(=O)CS/C1=N\C(=O)Nc1ccc(-c2ncn(-c3ccc(OC(F)(F)F)cc3)n2)cc1F` [Compound J66, (Z)-1-(2-Fluoro-4-(1-(4-(trifluoromethoxy)phenyl)-1H-1,2,4-triazol-3-yl)phenyl)-3-(3-(2-(methoxymethyl)-5-methylphenyl)-4-oxothiazolidin-2-ylidene)urea], which pest or weed control at 50 µg/cm2 [1] is on record?
Its pest or weed control at 50 µg/cm2 is 50 to 100%.

And the pest or weed control at 200 µg/mL [2]?
Its pest or weed control at 200 µg/mL is 0 to 80%.

What about the pest or weed control at 50 µg/cm2 [3] of the same compound?
Its pest or weed control at 50 µg/cm2 is 50 to 100%.

What does the source list for `CCc1cc(-c2ncn(-c3ccc(OC(F)(F)F)cc3)n2)ccc1NC(=O)/N=C1\SCC(=O)N1c1cc(C)ccc1C(C)C` [Compound J70, (Z)-1-(2-Ethyl-4-(1-(4-(trifluoromethoxy)phenyl)-1H-1,2,4-triazol-3-yl)phenyl)-3-(3-(2-isopropyl-5-methylphenyl)-4-oxothiazolidin-2-ylidene)urea]?
pest or weed control at 50 µg/cm2 [1]: 50 to 100%; pest or weed control at 200 µg/mL [2]: 0 to 80%; pest or weed control at 50 µg/cm2 [3]: 50 to 100%

With `CCc1cc(-c2ncn(-c3ccc(OC(F)(F)F)cc3)n2)ccc1NC(=O)/N=C1\SCC(=O)N1c1cc(OC)ccc1C(C)C` [Compound J71, (Z)-1-(2-Ethyl-4-(1-(4-(trifluoromethoxy)phenyl)-1H-1,2,4-triazol-3-yl)phenyl)-3-(3-(2-isopropyl-5-methoxyphenyl)-4-oxothiazolidin-2-ylidene)urea] as the compound, how does the pest or weed control at 50 µg/cm2 [1] read?
Its pest or weed control at 50 µg/cm2 is 50 to 100%.

And the pest or weed control at 200 µg/mL [2]?
Its pest or weed control at 200 µg/mL is 0 to 80%.

And the pest or weed control at 50 µg/cm2 [3]?
The pest or weed control at 50 µg/cm2 was 50 to 100%.

What does the source list for `CCc1cc(-c2ncn(-c3ccc(OC(F)(F)F)cc3)n2)ccc1NC(=O)/N=C1\SCC(=O)N1c1cc(C)ccc1COC` [Compound J72, (Z)-1-(2-Ethyl-4-(1-(4-(trifluoromethoxy)phenyl)-1H-1,2,4-triazol-3-yl)phenyl)-3-(3-(2-(methoxymethyl)-5-methylphenyl)-4-oxothiazolidin-2-ylidene)urea]?
pest or weed control at 50 µg/cm2 [1]: 50 to 100%; pest or weed control at 200 µg/mL [2]: 0 to 80%; pest or weed control at 50 µg/cm2 [3]: 50 to 100%

`CCc1cc(-c2ncn(-c3ccc(OC(F)(F)F)cc3)n2)ccc1NC(=O)/N=C1\SCC(=O)N1c1cc(C)ccc1OCCC(F)(F)F` [Compound J73, (Z)-1-(2-Ethyl-4-(1-(4-(trifluoromethoxy)phenyl)-1H-1,2,4-triazol-3-yl)phenyl)-3-(3-(5-methyl-2-(3,3,3-trifluoropropoxy)phenyl)-4-oxothiazolidin-2-ylidene)urea] was tested. Which pest or weed control at 50 µg/cm2 [1] did it give?
Its pest or weed control at 50 µg/cm2 is 50 to 100%.

And the pest or weed control at 200 µg/mL [2]?
The pest or weed control at 200 µg/mL was 0 to 80%.

And the pest or weed control at 50 µg/cm2 [3]?
Its pest or weed control at 50 µg/cm2 is 50 to 100%.

`CCc1cc(-c2ncn(-c3ccc(OC(F)(F)F)cc3)n2)ccc1NC(=O)/N=C1\SCC(=O)N1c1cc(C)ccc1C(C)OC` (stereo not drawn) [Compound J74, (Z)-1-(2-Ethyl-4-(1-(4-(trifluoromethoxy)phenyl)-1H-1,2,4-triazol-3-yl)phenyl)-3-(3-(2-(1-methoxyethyl)-5-methylphenyl)-4-oxothiazolidin-2-ylidene)urea] was tested. Which pest or weed control at 50 µg/cm2 [1] did it give?
Its pest or weed control at 50 µg/cm2 is 50 to 100%.

And the pest or weed control at 200 µg/mL [2]?
The pest or weed control at 200 µg/mL was 0 to 80%.

And the pest or weed control at 50 µg/cm2 [3]?
The pest or weed control at 50 µg/cm2 was 50 to 100%.

Which results are given for `CCc1cc(-c2ncn(-c3ccc(OC(F)(F)F)cc3)n2)ccc1NC(=O)/N=C1\SCC(=O)N1c1cc(C)ccc1OCC(F)(F)F` [Compound J75, (Z)-1-(2-Ethyl-4-(1-(4-(trifluoromethoxy)phenyl)-1H-1,2,4-triazol-3-yl)phenyl)-3-(3-(5-methyl-2-(2,2,2-trifluoroethoxy)phenyl)-4-oxothiazolidin-2-ylidene)urea]?
pest or weed control at 50 µg/cm2 [1]: 50 to 100%; pest or weed control at 200 µg/mL [2]: 0 to 80%; pest or weed control at 50 µg/cm2 [3]: 50 to 100%

For `CC(C)c1ccc(C#N)cc1N1C(=O)CS/C1=N\C(=O)Nc1ccc(-c2ncn(-c3ccc(OC(F)(F)F)cc3)n2)cc1F` [Compound J76, (Z)-1-(3-(5-Cyano-2-isopropylphenyl)-4-oxothiazolidin-2-ylidene)-3-(2-fluoro-4-(1-(4-(trifluoromethoxy)phenyl)-1H-1,2,4-triazol-3-yl)phenyl)urea], which pest or weed control at 200 µg/mL [2] is on record?
Its pest or weed control at 200 µg/mL is 0 to 80%.

With `CCOc1ccc(C(C)C)c(N2C(=O)CS/C2=N\C(=O)Nc2ccc(-c3ncn(-c4ccc(OC(F)(F)F)cc4)n3)cc2F)c1` [Compound J191, (Z)-1-(3-(5-Ethoxy-2-isopropylphenyl)-4-oxothiazolidin-2-ylidene)-3-(2-fluoro-4-(1-(4-(trifluoromethoxy)phenyl)-1H-1,2,4-triazol-3-yl)phenyl)urea] as the compound, how does the pest or weed control at 200 µg/mL [2] read?
The pest or weed control at 200 µg/mL was 0 to 80%.

`Cc1ccc(-c2ccccc2)c(N2C(=O)CS/C2=N\C(=O)Nc2ccc(-c3ncn(-c4ccc(OC(F)(F)F)cc4)n3)cc2F)c1` [Compound J785, (Z)-1-(2-Fluoro-4-(1-(4-(trifluoromethoxy)phenyl)-1H-1,2,4-triazol-3-yl)phenyl)-3-(3-(4-methyl-[1,1′-biphenyl]-2-yl)-4-oxothiazolidin-2-ylidene)urea] was tested. Which “GPA rating (% control or mortality class)” value ([2]; Table ABC, species GPA, foliar spray on infested cabbage seedlings) did it give?
The value was “D (No activity noticed in this bioassay)”.
